# Laboratory results from publication PMC4055595, “Pharmacokinetic Compatibility of Ginsenosides and Schisandra Lignans in Shengmai-san: From the Perspective of P-Glycoprotein” (PLoS ONE, 2014).
# Where two headings read alike, the source gives them in different places.
# Legend:
# [1] = Rat plasma pharmacokinetics after 10-day vehicle/SLE and digoxin or GE; type: in vivo, Sprague-Dawley rats; conditions: rats; for AUC / Cmax / AUC(0-inf) / MRT inf / half-life: female, Sprague-Dawley, rat, plasma, po; for AUC(0-inf): read-out: AUCINF_obs; for MRT inf: read-out: MRTINF_obs; for half-life: read-out: t1/2 (converted)
# Protocol: This study was carried out in strict accordance with the recommendations in the Guide for the Care and Use of Laboratory Animals of the National Institutes of Health. The protocol was approved by the Committee on the Ethics of Animal Experiments of the China Pharmaceutical University. All surgery was performed under sodium pentobarbital anesthesia, and all efforts were made to minimize suffering. […] The rats were fed with standard laboratory food and water and fasted overnight but with free access to water before the test. To evaluate the effect of long-term treatment with SLE on the pharmacokinetics of ginsenosides, 24 rats were also divided into four groups (group I∼ group IV) with 6 animals each. […] On the 11th day, digoxin was administered intragastrically to rats (group I and group II) at a single dose of 0.5 mg/kg, GE was administered intragastrically to rats (group III and group IV) at a single dose of 120 mg/kg. […] Plasma was obtained by centrifugation at 5000 g for 10 min and stored at −20°C before analysis. The plasma / cell samples were extracted using a liquid–liquid extraction technique. To each tube containing 100 µL plasma, 10 µL internal standard (digoxin, 1.0 µg/mL) and 1.0 mL of n-butanol were added. The mixture was then vortex-extracted for 2 min, and centrifuged for 10 min at 10,000 g. […] The plasma concentration-time curves of ginsenosides in rats were obtained by plotting the mean plasma concentrations versus time. Pharmacokinetic parameters were calculated using the WinNonlin 6.3 program (Pharsight Inc., Mountain View, CA). The elimination half-life (t 1/2) value was calculated as 0.693/β, where β is the elimination rate constant calculated from the terminal linear portion of the log plasma concentration-time curve. The total areas under the plasma concentration- time curve from time 0 to the last quantifiable time point (AUC0-t) and from time 0 to infinity (AUC0-∞) were calculated using the log trapezoidal rule. [drawing 3] The maximum plasma concentrations (C max) for ginsenosides were obtained by visual inspection of the plasma concentration-time curve, whereas the initial drug concentration (the extrapolated concentration at zero time) of the drug after intravenous injection was calculated by back-extrapolation of the plasma concentration-time curve to the y-axis.
# [2] = biological target: human MDR1-encoded P-gp (L-MDR1 cells) (Homo sapiens, UniProt P08183); assay: Uptake (intracellular concentration) of digoxin and ginsenosides in L-MDR1 cells; type: in vitro ADME
# human MDR1-encoded P-gp (L-MDR1 cells), sequence (P08183 whole entry): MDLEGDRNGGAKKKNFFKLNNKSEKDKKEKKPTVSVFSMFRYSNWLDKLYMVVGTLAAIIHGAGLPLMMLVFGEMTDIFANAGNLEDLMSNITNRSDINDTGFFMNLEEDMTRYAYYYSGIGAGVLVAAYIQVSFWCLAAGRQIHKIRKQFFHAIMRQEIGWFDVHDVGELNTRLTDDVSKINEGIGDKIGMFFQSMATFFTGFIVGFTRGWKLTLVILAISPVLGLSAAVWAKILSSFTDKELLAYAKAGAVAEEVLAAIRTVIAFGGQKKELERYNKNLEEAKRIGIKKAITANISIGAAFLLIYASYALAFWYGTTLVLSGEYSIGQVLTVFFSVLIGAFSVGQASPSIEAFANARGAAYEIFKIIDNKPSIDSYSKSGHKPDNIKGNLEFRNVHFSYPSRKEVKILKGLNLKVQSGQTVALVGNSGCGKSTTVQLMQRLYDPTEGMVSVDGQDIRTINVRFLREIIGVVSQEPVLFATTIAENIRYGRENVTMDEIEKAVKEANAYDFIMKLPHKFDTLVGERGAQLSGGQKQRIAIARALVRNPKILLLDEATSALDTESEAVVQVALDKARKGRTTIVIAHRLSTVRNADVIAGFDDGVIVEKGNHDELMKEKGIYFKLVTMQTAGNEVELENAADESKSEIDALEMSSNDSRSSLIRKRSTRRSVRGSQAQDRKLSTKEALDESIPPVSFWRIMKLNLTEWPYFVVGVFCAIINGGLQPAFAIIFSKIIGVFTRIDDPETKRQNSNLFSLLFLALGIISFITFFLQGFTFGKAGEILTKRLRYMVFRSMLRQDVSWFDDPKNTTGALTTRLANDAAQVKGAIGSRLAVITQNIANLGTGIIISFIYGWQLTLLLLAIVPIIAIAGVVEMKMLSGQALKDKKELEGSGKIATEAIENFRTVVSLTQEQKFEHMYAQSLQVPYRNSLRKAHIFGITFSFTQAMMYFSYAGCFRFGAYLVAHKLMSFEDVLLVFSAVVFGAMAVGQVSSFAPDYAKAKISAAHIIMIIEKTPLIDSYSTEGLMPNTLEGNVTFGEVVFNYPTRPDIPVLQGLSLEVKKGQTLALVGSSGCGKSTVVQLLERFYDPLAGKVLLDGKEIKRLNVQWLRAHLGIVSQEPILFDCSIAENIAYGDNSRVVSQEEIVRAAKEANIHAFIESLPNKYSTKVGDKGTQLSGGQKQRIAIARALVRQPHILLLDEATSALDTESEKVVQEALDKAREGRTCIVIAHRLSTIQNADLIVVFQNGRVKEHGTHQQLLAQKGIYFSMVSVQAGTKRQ
# Protocol: LLC-PK1 cells, a cell line lacking P-gp, and the derived cell line L-MDR1, which over-express human MDR1-encoded P-gp, were grown in minimum essential medium with supplements at 37°C, 5% CO2, and 95% humidity. LLC-PK1 and L-MDR1 cells were seeded at a density of 12×10^6 cells per 150-cm^2 flask and grown for 7 days in medium 199 supplemented with 2 mM glutamine, 10% fetal bovine serum, 10 mg/500 mL of streptomycin, and 10,000 IU/500 mL of penicillin. To ensure a constant expression level of transport protein, L-MDR1 cells were grown in the presence of 640 nM vincristine. Cells were grown as monolayer on polycarbonate membrane filters (Transwell; Costar Corporation, Cambridge, MA) as outlined previously. Transepithelial resistance was measured in each well using a Millicell ERS ohmmeter (Millipore, Bedford, MA); wells registering a resistance of 200 ohms or greater, after correcting for the resistance obtained in control blank wells, were used in the transport experiments.
# LLC-PK1 and L-MDR1 cells were incubated with SLE (2.0 and 10.0 µg/mL) or verapamil (10 µM) for 1.0 h, and then were washed to discard SLE or verapamil before adding 100 µg/mL of GE. The accumulation of GE lasted for 2 h, and the intracellular concentrations of ginsenosides were measured by LC/MS. All experiments were conducted in triplicate.
# [3] = Transport of digoxin and ginsenosides across Caco-2 cell monolayer (efflux ratio); type: in vitro ADME, human; conditions: human, pH 7.4; Caco-2 cell monolayer, absence of inhibitor, GE 100 µg/mL; read-out: Efflux ratio
# Protocol: Caco-2 cells were purchased from American Type Culture Collection (Manassas, VA), and were routinely cultured in Dulbecco's modified Eagle's medium supplemented with 10% fetal bovine serum, 1% nonessential amino acids, 1 mM sodium pyruvate, and 100 U/mL penicillin and streptomycin (Invitrogen, Carlsbad, CA). The cells were grown in an atmosphere of 5% CO2 at 37°C, and cell medium was changed every other day. Cells were seeded at a density of 4×10^4 cells per well in 24-well microporous polycarbonate insert filter plates (0.4-µm pore size) (Corning Costar plates; Corning Life Sciences, Lowell, MA) and grown for 15 days in Caco-2 growth medium. The medium was replaced every 3 to 4 days. Before running the assay, the culture medium was replaced by HBSS buffer supplemented with 10 mM Hepes and 20 mM glucose.
# Caco-2 cells with a density of 1.2×10^5 cells/insert were seeded on a permeable polycarbonate insert (Millicell cell culture inserts, 0.4 µm pore size, 12 mm diameter; Millipore Corporation) in 24-well tissue culture plates and were used for the experiment 18 to 21 days after seeding. [^14C]Mannitol permeability and transepithelial electrical resistance measurements (Millicell-ERS epithelial volt-ohm meter; Millipore Corporation) were used to evaluate the integrity of Caco-2 cell monolayer. The monolayer used in transport studies had transepithelial electrical resistance values exceeding 600 Ω·cm^2, and the leakage of mannitol was less than 0.3% of the dose/h. Before transport initiation studies, the cell monolayer was first washed with warm HBSS (pH 7.4) twice. HBSS containing SLE (2.0 and 10.0 µg/mL) or 1% ethanol (control) was then loaded into both apical and basolateral chambers. After incubation at 37°C for 1.5 h, 100 µg/mL of GE was added to either the apical or basolateral side to evaluate the transport in absorptive and secretory directions, and the cell monolayer was incubated for another 2 h. 10 µM verapamil was used as a positive control inhibitor. At the designated time point, samples were taken from the receiving chamber for analysis. Ginsenosides were determined by LC-MS. All experiments were conducted in triplicate.
# For the transport assay, the apparent permeability (P app, cm/s) in each direction (A→B and B→A) was calculated as follows, where A is the surface area of the membrane inserts (0.0804 cm^2), C 0 is the initial concentration of the compound applied in the donor compartment (2 µM), and △Q is the amount (micromoles) of compound transported over time △t (5 h = 18,000 s): [drawing 1]
# The efflux ratio (ER) was a dimensionless number calculated as the ratio of the apparent permeability in the B→A direction divided by the apparent permeability in the A→B direction. [drawing 2]
# [4] = SLE 500 mg/kg ig once a day for 10 days, day 11 digoxin 0.5 mg/kg or GE 120 mg/kg ig
# [5] = control: vehicle once a day for 10 days, day 11 digoxin 0.5 mg/kg or GE 120 mg/kg ig
structure (smiles),measurement,setting,value
"CC(C)=CCC[C@](C)(O[C@@H]1O[C@H](CO)[C@@H](O)[C@H](O)[C@H]1O)[C@H]1CC[C@]2(C)[C@@H]1[C@H](O)C[C@@H]1[C@@]3(C)CC[C@H](O[C@@H]4O[C@H](CO)[C@@H](O)[C@H](O)[C@H]4O[C@@H]4O[C@H](CO)[C@@H](O)[C@H](O)[C@H]4O)C(C)(C)[C@@H]3CC[C@]12C [Rd, ginsenoside Rd]",AUC,[1]; [4],7640 ± 2690 ng·h/mL
same,Cmax,[1]; [4],265 ± 49.4 ng/mL
same,AUC(0-inf),[1]; [4],11700 ± 8560 ng·h/mL
same,MRT inf,[1]; [4],26.3 ± 90.6 h
same,half-life,[1]; [4],18 ± 75.9 h
same,AUC,[1]; [5],6570 ± 1820 ng·h/mL
same,Cmax,[1]; [5],262 ± 104 ng/mL
same,AUC(0-inf),[1]; [5],7460 ± 2340 ng·h/mL
same,MRT inf,[1]; [5],22.4 ± 9.98 h
same,half-life,[1]; [5],20.8 ± 9.64 h
same,Cl_F_obs,[1]; [4],0.0125 ± 0.0084 L/h
same,Tmax,[1]; [4],8.00 ± 2.45 h
same,Increase of AUC (AUC0-∞) by 10 continuous days administration of SLE,"[1]; SLE 500 mg/kg x 10 days vs vehicle, GE ig on day 11",1.60 fold
same,Tmax,[1]; [5],8.00 ± 2.45 h
same,Increase of intracellular concentration by SLE,[2]; 2.0 µg/mL SLE,2.9 fold
same,Increase of intracellular concentration by SLE,[2]; 10.0 µg/mL SLE,4.3 fold
same,"efflux ratio at 2 h, 100 µg/mL",[3],4.47
